From PMC11982978, “Cancer hotspot mutations rewire ERK2 specificity by selective exclusion of docking interactions” (The Journal of Biological Chemistry, 2025)
Peptide text beside a SMILES is read from it. * marks the point of attachment. Biotin = O=C1N[C@H]2[C@H](CS[C@H]2CCCCC(=O)*)N1

Tests used:
Type in all cases: biochemical
[1] = biological target: T1, ERK2 R133K (Mus musculus, UniProt P63085, R133K); assay: Competitive peptide kinase assay (D-peptide inhibition), ERK2 R133K; settings: Table S1, 5 μM reporter peptide, 10 nM ERK2, 10 μM ATP, three independent experiments
T1 construct: His6; made in house; host or cells: E. coli BL21(DE3), co-expressed with GST-MEK1ΔN3
T1 sequence (P63085 whole entry R133K): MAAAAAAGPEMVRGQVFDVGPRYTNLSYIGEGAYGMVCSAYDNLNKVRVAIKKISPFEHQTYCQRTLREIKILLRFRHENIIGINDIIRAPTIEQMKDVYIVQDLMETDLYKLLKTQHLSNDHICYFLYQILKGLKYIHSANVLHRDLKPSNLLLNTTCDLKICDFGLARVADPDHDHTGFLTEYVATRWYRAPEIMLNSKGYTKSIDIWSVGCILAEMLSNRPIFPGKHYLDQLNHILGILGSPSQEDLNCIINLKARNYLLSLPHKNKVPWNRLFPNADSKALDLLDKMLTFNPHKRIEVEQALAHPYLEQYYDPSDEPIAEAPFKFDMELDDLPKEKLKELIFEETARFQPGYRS
Experimental: (§1) We determined relative binding affinities for D-peptides from their potency as competitive inhibitors of WT or mutant ERK2 activity on a D-site-dependent reporter substrate peptide (Table S1, Fig. 3A, S3).
(§2) Competitive peptide kinase assays were performed with a D-site dependent MAPK reporter substrate peptide (AssayQuant Technologies Inc, #AQT0376) as we reported previously ([15]). Briefly, 5 μM of reporter peptide was mixed with various concentrations of D-peptides in reaction buffer (54 mM HEPES [pH 7.4], 1.2 mM DTT, 0.01% Brij-35, 1% glycerol, 0.2 mg/ml BSA, and 10 mM MgCl2). […] Phosphorylation of the reporter peptide was measured by fluorescence (λex 360 nm, λem 485 nm) in 90 s intervals over 21 min in a Spectra M5 plate reader. Rates were calculated from the linear portion of the reaction progress curve, and data were normalized to maximum (samples lacking competitor peptide) and minimum (control reactions lacking kinase) values. Normalized rates were plotted against D-peptide concentration and fitted into a sigmoidal dose-response curve to determine the IC50 values using GraphPad Prism (Version 9.3.0).

[2] = biological target: T2, ERK2 WT (Mus musculus, UniProt P63085); assay: Competitive peptide kinase assay (D-peptide inhibition), ERK2 WT; settings: Table S1, 5 μM reporter peptide, 10 nM ERK2, 10 μM ATP, three independent experiments
T2 construct: His6; made in house; host or cells: E. coli BL21(DE3), co-expressed with GST-MEK1ΔN3
T2 sequence (P63085 whole entry): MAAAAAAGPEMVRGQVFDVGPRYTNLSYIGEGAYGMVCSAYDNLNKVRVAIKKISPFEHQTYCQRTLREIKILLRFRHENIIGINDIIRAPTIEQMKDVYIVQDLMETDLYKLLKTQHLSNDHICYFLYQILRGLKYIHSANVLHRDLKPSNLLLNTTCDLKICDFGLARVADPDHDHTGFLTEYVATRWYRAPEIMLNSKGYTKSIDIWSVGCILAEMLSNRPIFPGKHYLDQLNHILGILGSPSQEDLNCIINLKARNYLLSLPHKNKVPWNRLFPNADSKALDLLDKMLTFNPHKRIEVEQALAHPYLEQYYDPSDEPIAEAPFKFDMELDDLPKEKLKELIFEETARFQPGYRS
Experimental: as §1, §2

[3] = biological target: T3, ERK2 E322K (Mus musculus, UniProt P63085, E320K); assay: Competitive peptide kinase assay (D-peptide inhibition), ERK2 E322K; settings: Table S1, 5 μM reporter peptide, 10 nM ERK2, 10 μM ATP, three independent experiments
T3 construct: His6; made in house; host or cells: E. coli BL21(DE3), co-expressed with GST-MEK1ΔN3
T3 sequence (P63085 whole entry E320K): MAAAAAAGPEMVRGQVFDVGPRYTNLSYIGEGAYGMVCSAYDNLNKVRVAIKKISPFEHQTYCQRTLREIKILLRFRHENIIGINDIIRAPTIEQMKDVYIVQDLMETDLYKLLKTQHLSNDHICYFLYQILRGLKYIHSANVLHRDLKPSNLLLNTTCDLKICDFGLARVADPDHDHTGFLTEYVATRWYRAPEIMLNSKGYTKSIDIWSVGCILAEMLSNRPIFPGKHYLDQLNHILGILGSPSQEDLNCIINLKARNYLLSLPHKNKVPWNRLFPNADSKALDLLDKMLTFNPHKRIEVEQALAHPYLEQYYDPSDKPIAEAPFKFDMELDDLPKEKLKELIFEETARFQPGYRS
Experimental: as §1, §2

[4] = biological target: T4, ERK2 D319N (Mus musculus, UniProt P63085, D319N); assay: Competitive peptide kinase assay (D-peptide inhibition), ERK2 D319N; settings: Table S1, 5 μM reporter peptide, 10 nM ERK2, 10 μM ATP, three independent experiments
T4 construct: His6; made in house; host or cells: E. coli BL21(DE3), co-expressed with GST-MEK1ΔN3
T4 sequence (P63085 whole entry D319N): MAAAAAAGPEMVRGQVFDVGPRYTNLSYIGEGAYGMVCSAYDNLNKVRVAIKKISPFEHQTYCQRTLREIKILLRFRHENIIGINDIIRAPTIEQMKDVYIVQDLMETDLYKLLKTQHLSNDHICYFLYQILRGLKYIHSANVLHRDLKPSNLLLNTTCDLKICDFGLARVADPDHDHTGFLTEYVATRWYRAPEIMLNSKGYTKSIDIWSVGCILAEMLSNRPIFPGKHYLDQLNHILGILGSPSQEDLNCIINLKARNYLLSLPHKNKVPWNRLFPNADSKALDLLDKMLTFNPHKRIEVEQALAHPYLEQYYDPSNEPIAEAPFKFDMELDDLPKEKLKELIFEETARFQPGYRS
Experimental: as §1, §2

[5] = tested on: His6-ERK2 WT; assay: Radiolabel kinase assay with competing D-peptide; settings: 10 μM KMT2C D-peptide, WT without peptide = 100.0; for ELK1 WT phosphorylation, Normalized: 0.5 μM GST-ELK1 WT; for ELK1 WT phosphorylation, Normalized / ELK1 ΔD phosphorylation, Normalized: 10 nM ERK2 WT; for ELK1 ΔD phosphorylation, Normalized: 0.5 μM GST-ELK1 ΔD; for GEF-H1 phosphorylation, Normalized: 0.5 μM His6-GEF-H1, 10 nM ERK2 WT
Source text: Based on our structural and mutational analysis, we hypothesized that ERK2 CD site mutants should not bind or efficiently phosphorylate validated ERK2 substrates containing an I/L-x-x-R-R D-site motif. We previously reported that while ISG20 interacts physically with ERK2 in cells, it is not an ERK2 substrate in vitro ([15]). […] We previously reported that disruption of the GEF-H1 docking motif reduced its extent of co-immunoprecipitation with ERK2 ([15]). Accordingly, we investigated whether cancer-associated ERK2 mutants were impaired in phosphorylating GEF-H1. […] The level of phosphorylation by CD site mutants was similar to that of WT ERK2 when assayed in the presence of excess competing D-peptide to block docking interactions.
Radiolabel kinase assays were performed as described previously by incubating 0.5 μM MAPK substrate (His6-GEF-H1, GST-ELK1^WT or GST-ELK1^ΔD), 10 nM His6-ERK2 (WT, R133K, D319N or E320K) and 10 μM inhibitor peptide KMT2C where indicated (biotin-RKRSKPKLKLKIIN-amide, Tufts University Core Facility) in reaction buffer (20 mM HEPES, 10 mM MgCl2, 1 mM DTT, 1% DMSO, 10 μM cold ATP, and 0.038 μCi/μl [γ-^32P] ATP) at 30 °C for 2 min. Reactions were quenched by the addition of 4x SDS-PAGE loading buffer and heated to 95 °C for 5 min before SDS-PAGE fractionation. Gels were stained with Coomassie blue, destained, dried, and exposed to a phosphor screen. Radiolabel incorporation was measured with Molecular Imager FX phosphorimager (Bio-Rad), and ^32P signal density (CNT/mm^2) was quantified using QuantityOne Software (Bio-Rad version 11.0.5). All signals were normalized to the vehicle control condition. Raw quantified data are provided in Dataset S3.

Row | IC50 [1] [µM] | IC50 [2] [µM] | IC50 [3] [µM] | IC50 [4] [µM] | ELK1 WT phosphorylation, Normalized ([5]; Replicate 1) | ELK1 WT phosphorylation, Normalized ([5]; Replicate 2) | ELK1 WT phosphorylation, Normalized ([5]; Replicate 3) | ELK1 ΔD phosphorylation, Normalized ([5]; Replicate 1) | ELK1 ΔD phosphorylation, Normalized ([5]; Replicate 2) | ELK1 ΔD phosphorylation, Normalized ([5]; Replicate 3) | GEF-H1 phosphorylation, Normalized ([5]; 30 °C 2 min, Replicate 1) | GEF-H1 phosphorylation, Normalized ([5]; Replicate 2) | GEF-H1 phosphorylation, Normalized ([5]; Replicate 3) | Compound
1 | 27 | 24 | 40 | 30 |  |  |  |  |  |  |  |  |  | CC[C@H](C)[C@H](NC(=O)[C@H](CC(C)C)NC(=O)[C@@H]1CCCN1C(=O)[C@H](CCC(=O)O)NC(=O)[C@@H]1CCCN1C(=O)[C@H](CCCNC(=N)N)NC(=O)[C@@H]1CCCN1C(=O)[C@H](CCCNC(=N)N)NC(=O)[C@H](CCC(N)=O)NC(=O)[C@H](CCCCN)NC(=O)[C@@H]1CCCN1C(=O)[C@H](C)NC(=O)[C@@H](N)Cc1ccc(O)cc1)C(=O)N[C@H](C(=O)N1CCC[C@H]1C(=O)N[C@H](C(=O)O)[C@@H](C)O)[C@@H](C)CC [ELMSAN1] (H-YAPKQRPRPEPLIIPT-OH)
2 | > 200 | 92 | > 200 | > 200 |  |  |  |  |  |  |  |  |  | CC(C)C[C@H](NC(=O)CNC(=O)[C@H](CCCNC(=N)N)NC(=O)[C@H](CCCNC(=N)N)NC(=O)[C@H](C)NC(=O)[C@H](CS)NC(=O)[C@H](CC(C)C)NC(=O)[C@H](C)NC(=O)[C@@H](N)Cc1ccc(O)cc1)C(=O)N[C@@H](Cc1ccc(O)cc1)C(=O)N[C@@H](CS)C(=O)N[C@@H](CC(C)C)C(=O)N[C@@H](CO)C(=O)N[C@@H](CC(C)C)C(=O)N[C@@H](CC(=O)O)C(=O)N[C@@H](Cc1c[nH]cn1)C(=O)O [FAAP100]
3 | 29 | 23 | 41 | 23 |  |  |  |  |  |  |  |  |  | CC[C@H](C)[C@H](NC(=O)[C@@H](NC(=O)[C@H](CC(C)C)NC(=O)[C@H](C)NC(=O)[C@@H]1CCCN1C(=O)[C@H](CC(C)C)NC(=O)[C@@H](NC(=O)[C@@H]1CCCN1C(=O)[C@H](CCCCN)NC(=O)[C@H](CCCNC(=N)N)NC(=O)[C@H](CCCNC(=N)N)NC(=O)[C@H](C)NC(=O)[C@H](C)NC(=O)[C@@H](N)Cc1ccc(O)cc1)C(C)C)[C@@H](C)O)C(=O)N[C@@H](CC(N)=O)C(=O)N1CCC[C@H]1C(=O)O [MAP2K2] (H-YAARRKPVLPALTINP-OH)
4 | 23 | 18 | 28 | 26 |  |  |  |  |  |  |  |  |  | CC(C)C[C@H](NC(=O)CNC(=O)[C@H](CCCCN)NC(=O)[C@H](Cc1ccccc1)NC(=O)[C@H](CC(N)=O)NC(=O)[C@H](CCCCN)NC(=O)[C@H](Cc1c[nH]c2ccccc12)NC(=O)[C@H](CCCCN)NC(=O)[C@@H]1CCCN1C(=O)[C@H](CO)NC(=O)[C@H](C)NC(=O)[C@@H](N)Cc1ccc(O)cc1)C(=O)N[C@@H](CCCCN)C(=O)N[C@@H](CC(C)C)C(=O)N[C@@H](CC(C)C)C(=O)N[C@@H](CS)C(=O)O [MLXIPL] (H-YASPKWKNFKGLKLLC-OH)
5 | 760 | 42 | 600 | 600 |  |  |  |  |  |  |  |  |  | CC(C)C[C@H](NC(=O)[C@@H](NC(=O)[C@H](CC(C)C)NC(=O)[C@H](CO)NC(=O)[C@@H](NC(=O)[C@H](CC(N)=O)NC(=O)[C@H](CO)NC(=O)CNC(=O)[C@H](CCCNC(=N)N)NC(=O)[C@H](CCCNC(=N)N)NC(=O)[C@H](CCC(=O)O)NC(=O)[C@H](CCC(N)=O)NC(=O)[C@H](CC(C)C)NC(=O)CNC(=O)[C@H](C)NC(=O)[C@@H](N)Cc1ccc(O)cc1)C(C)C)[C@@H](C)O)C(=O)O [PTPN5] (H-YAGLQERRGSNVSLTL-OH)
6 | 6.2 | 6.8 | 56 | 23 |  |  |  |  |  |  |  |  |  | CC[C@H](C)[C@H](NC(=O)[C@H](C)NC(=O)[C@@H](N)Cc1ccc(O)cc1)C(=O)N[C@@H](CCCCN)C(=O)NCC(=O)N[C@@H](CCCCN)C(=O)N[C@@H](CCCNC(=N)N)C(=O)N[C@@H](CCCNC(=N)N)C(=O)N[C@@H](CCCNC(=N)N)C(=O)N[C@@H](CCCCN)C(=O)N[C@@H](CCCCN)C(=O)N[C@@H](CC(C)C)C(=O)N[C@H](C(=O)N[C@@H](CC(C)C)C(=O)N[C@@H](C)C(=O)N[C@@H](CCCCN)C(=O)O)[C@@H](C)CC [ZBED6] (H-YAIKGKRRRKKLILAK-OH)
7 |  |  |  |  | 66.2 | 52.7 | 42.6 | 107.4 | 80.5 | 85.4 | 23.5 | 37.1 | 54.2 | Biotin-RKRSKPKLKLKIIN-NH2 [D-pep]
